Reference: patent US7838527B2, “Methods of treating cancer and related methods” (Novartis Vaccines and Diagnostics, Inc., priority 2002, dated 2010)
Where two headings read alike, the source gives them in different places.

Experiments:
[1] = test system: PC3 human prostate tumor
[2] = Plasma pharmacokinetics in KM12L4a tumor-bearing mice; assay type: in vivo; conditions: 300 mg/kg/day p.o.; Day 18; from 3 concentration-time pairs
[3] = Metabolite profile in monkey plasma, multiple oral dose study; assay type: in vivo; conditions: for level in plasma: compound 1 5 mg/kg BID oral (10 mg/kg/day), Day 1, metabolite estimated by UV
[4] = Compound 1 and metabolite levels in pooled rat plasma, 2 week toxicology study; assay type: in vivo; conditions: metabolites estimated by UV; for concentration at 0 h / concentration at 24 h: rat, plasma, po, read-out: Level in Rat Plasma
[5] = 30 mg/kg, compound 1 30 mg/kg PO once a day, Day 1
[6] = 100 mg/kg, compound 1 100 mg/kg PO once a day, Day 1
[7] = 100 mg/kg, compound 1 100 mg/kg PO once a day, Day 14

AUC [2]	detection of metabolite in plasma ([3]; monkey, compound 1 5 mg/kg BID oral, day 1 and 14 samples)	level in plasma ([3]; pooled 0 hr)	level in plasma ([3]; pooled 1, 2 hr)	level in plasma ([3]; pooled 4, 8 hr)	level in plasma ([3]; pooled 12, 13, 14, 16, 20, 24 hr)	Structure (SMILES)	% TGI vs. vehicle ([1]; 100 mpk q 2 days)	% TGI vs. vehicle ([1]; 100 mpk q 3 days)	% TGI vs. vehicle ([1]; 100 mpk q 4 days)	concentration at 0 h [4, 5]	concentration at 0 h [4, 6]	concentration at 24 h [4, 6]	concentration at 0 h [4, 7]	concentration at 24 h [4, 7]	Level in Rat Plasma ([4]; compound 1 30 mg/kg PO once a day, Day 1, 1-2 hr)	Level in Rat Plasma ([4]; compound 1 30 mg/kg PO once a day, Day 1, 4-8 hr)	Level in Rat Plasma ([4]; compound 1 100 mg/kg PO once a day, Day 14, 1-2 hr)	Level in Rat Plasma ([4]; compound 1 100 mg/kg PO once a day, Day 14, 4-8 hr)
58400 ng·h/mL						CN1CCN(c2ccc3nc(-c4c(N)c5c(F)cccc5[nH]c4=O)[nH]c3c2)CC1 [Compound 1]	75%	68%	66%									
	not detected					C[N+]1([O-])CCN(c2ccc3nc(-c4c(N)c5c(F)cccc5[nH]c4=O)[nH]c3c2)CC1 [Compound 2, 4-amino-5-fluoro-3-[6-(4-methyl-4-oxidopiperazin-1-yl)-1H-benzimidazol-2-yl]quinolin-2(1H)-one]				0 ng/mL	0 ng/mL	137 ng/mL	67 ng/mL	102 ng/mL				
		0 ng/mL	8.5 ng/mL	31 ng/mL	10 ng/mL	Nc1c(-c2nc3ccc(N4CCNCC4)cc3[nH]2)c(=O)[nH]c2cccc(F)c12 [Compound 3, 4-amino-5-fluoro-3-[6-(piperazin-1-yl)-1H-benzimidazol-2-yl]quinolin-2(1H)-one]				0 ng/mL	0 ng/mL	83 ng/mL	15 ng/mL	10 ng/mL	14 ng/mL	48 ng/mL	17 ng/mL	19 ng/mL
